We go through four substances from patent US5824647A, “Chemotactic wound healing peptides” (priority 1995, dated 1998).

The test system of assay [1] is human peripheral blood monocytes. The assay is described as follows: Monocyte chemotaxis in modified Boyden chambers. In kind it is cell-based. The following applies: for monocyte chemotaxis / migration (in words): peptide in lower compartment of modified Boyden chamber; for Mean Monocytes per 20 OIF + SEM: Experiment 2, peptide in lower compartment. The source says:
(§1) Human peripheral blood neutrophils and monocytes, isolated from whole blood using standard techniques may also be used in the chemotaxis assays, in a manner similar to infant foreskin fibroblasts, to measure the chemotactic activity of the peptides towards inflammatory cells. Such cells may also be maintained in supplemented MEM as above, to which 5-10% FCS may be added. When using neutrophils and monocytes, instead of fibroblasts, the polycarbonate filters used in the modified Boyden chambers had pore sizes of 2 and 3 microns, respectively. As above, all assays were carried out in quadruplicate.
The following 7-mer peptides (peptides 368-374, corresponding to amino acids 368-374 of human TGF-β1): VYYVGRK (SEQ ID NO. 1), LYYIGKT (SEQ ID NO. 2), LYYVGRT (SEQ ID NO. 3), IYYVGRN (SEQ ID NO. 4) and IYYVGRT (SEQ ID NO. 5) were synthesized by the Merrifield technique, purified by HPLC, and tested at different concentrations in the same assay for their ability to stimulate chemotaxis of human peripheral blood monocytes in vitro modified Boyden chambers.

Assay [2] has as its system Human peripheral blood neutrophils. The experiment in a line: Neutrophil chemotaxis in modified Boyden chambers. In kind it is cell-based. The following applies: peptide in lower compartment of modified Boyden chamber.
From the text: as §1

The test system of assay [3] is infant foreskin fibroblasts. The experiment in a line: Collagen production by fibroblasts (modified Peterofsky-Diegelman assay). It counts as cell-based, human. The following applies: [3H]proline incorporation into collagenase-sensitive protein. The protocol: The peptides of the invention were also found to stimulate collagen production by fibroblasts. Collagen production by fibroblasts in response to the peptides of the present invention was measured utilizing a modified Peterofsky-Diegelman assay. The assay is used to determine whether the peptides of the invention stimulate or inhibit collagen production by fibroblasts.
Low passage (4-12 subpassages) infant foreskin fibroblasts were plated out at a density of 10^5 cells/well in Falcon 3008 multiwell plates in complete maintenance medium containing 10% FCS. After cells reached confluency (72 hr), the medium was changed daily for 3 days, each time being replaced with serum-free maintenance medium containing fresh ascorbic acid. Samples (50 μl) were added to triplicate wells containing 450 μl serum-free MEM supplemented with fresh ascorbic acid and [^3 H]-proline (sp. act. 20 Ci/mmole), but no non-essential amino acids. After an additional 24 hr of culture, supernatants were reacted with protease-free bacterial collagenase to digest all collagen. Similar aliquots of unreacted supernatants and bacterial collagenase-treated supernatants were precipitated with cold 10% trichloroacetic acid (TCA) and were centrifuged for 5 minutes in a Beckman microfuge. Aliquots of the supernatants, after TCA precipitated proteins were pelleted, were placed in vials containing Hydrofluor and then were counted in a scintillation counter. CPM from TCA precipitated supernatants not reacted with bacterial collagenase were subtracted from each culture. The resulting CPM was a reflection of the collagen produced by that culture.
A modified Peterofsky-Diegelmann assay was used to screen peptide samples for their ability to stimulate or inhibit collagen production. Low passage (4-12 subpassages) infant foreskin fibroblast were plated out at a density of 10^5 cells/well of Falcon 3008 multiwell plates in complete maintenance medium containing 10% FCS. After cells reached confluency (72 hr) the medium was changed daily for 3 days, each time being replaced with serum-free maintenance medium containing fresh ascorbic acid. Samples ([…]) were added to triplicate wells containing […] serum free MEM supplemented with fresh ascorbic acid and [^3 H]-proline (sp. act. 20 Ci/mmole), but no non-essential amino acids. After an additional 24 hours of culture, supernatants were reacted with protease-free bacterial collagenase to digest all collagen. Similar aliquots of unreacted supernatants and bacterial collagenase-treated supernatants were precipitated with cold 10% trichloroacetic acid (TCA) and were centrifuged for 5 minutes in a Beckman microfuge. Aliquots of the supernatants, after TCA precipitated proteins were pelleted, were placed in vials containing Hydrofluor and then were counted in a scintillation counter. CPM from TCA precipitated supernatants not reacted with bacterial collagenase were subtracted from each culture. The resulting CPM was a reflection of the collagen produced by that culture.
Collagen production was measured following administration of the various 7-mer peptides 368-374 (SEQ ID NOs. 1-5) to fibroblasts. Peptides […] (SEQ ID NO. 1), LYYIGKT (SEQ ID NO. 2), LYYVGRT (SEQ ID NO. 3), IYYVGRN (SEQ ID NO. 4) and IYYVGRT (SEQ ID NO. 5) were synthesized by the Merrifield technique, purified by HPLC, and tested at different concentrations in the same assay for their ability to stimulate production of collagen in confluent cultures of infant foreskin fibroblasts. Collagen production was measured by incorporation of [^3 H]proline into collagenase-sensitive protein. All samples were tested in triplicate, and values represent the mean of triplicate determinations. Data are expressed as "% stimulation" of collagen production relative to control production in cultures with plain culture medium only added. […]

“Also recorded” adds a separate entry of the source.

Consider “PLPIVYYVGRKPKVE [Peptide 364-378, 15-mer peptide 364-378 of TGF-β1]”, for which the “monocyte chemotaxis / migration (in words)” value in assay [1] is “induced migration of fibroblasts, monocytes and neutrophils in a dose dependent fashion”. For the same substance, in assay [2], the “neutrophil chemotaxis / migration (in words)” value is “induced migration of fibroblasts, monocytes and neutrophils in a dose dependent fashion”. In addition, the “collagen production by fibroblasts (in words)” value (shortened to “collagen production”) in assay [3] is “stimulated to some degree”.
In the case of “YSKVLALYNQHNPGASAAPC (YSKVLALYNQHNPGASAAPC) [Peptide 337-356]”, the “collagen production” value in assay [3] is listed as “stimulated to some degree”.
“VYYVGRK [Peptide 368-374, 7-mer corresponding to amino acids 368-374 of TGF-β1]”: the figures for the “Mean Monocytes per 20 OIF + SEM” value in assay [1] (Media added to upper compartment) and in assay [1] (TGF-β1 (50 pg/ml) added to upper compartment) were 138 ± 8 Monocytes per 20 OIF and 50 ± 5 Monocytes per 20 OIF, respectively. Moreover, the “monocyte chemotaxis / migration (in words)” value in assay [1] was “induced migration of fibroblasts, monocytes and neutrophils in a dose dependent fashion”; in assay [1] (listed as VYYVGRK), “induced monocyte chemotaxis at all of the concentrations tested”. Moreover, the “neutrophil chemotaxis / migration (in words)” value in assay [2] was “induced migration of fibroblasts, monocytes and neutrophils in a dose dependent fashion”. In addition, in assay [3], the “collagen production” value was “stimulated to some degree; also recorded: does stimulate fibroblast chemotaxis and synthesis of collagen and hyaluronic acid”.
In the case of “340-391: synthetic peptide corresponding to sequence 340-391 of TGF-β1; positive chemotactic control (VLALYNQHNPGASAAPCCVPQALEPLPIVYYVGRKPKVEQLSNMIVRSCKCS; printed: Val Leu Ala Leu Tyr Asn Gln His Asn Pro Gly Ala Ser Ala Ala Pro Cys Cys Val Pro Gln Ala Leu Glu Pro Leu Pro Ile Val Tyr Tyr Val Gly Arg Lys Pro Lys Val Glu Gln Leu Ser Asn Met Ile Val Arg Ser Cys Lys Cys Ser) [Peptide 340-391]”, the “monocyte chemotaxis / migration (in words)” value in assay [1] is given as “migrated in a dose dependent fashion”. In assay [2], the “neutrophil chemotaxis / migration (in words)” value is reported as “migrated in a dose dependent fashion”. The “collagen production” value in assay [3] is given as “stimulated to some degree”.
